Assay results reported in US9211310B2, “Use of a Chinese medicine composition in preparing medicaments for treating secondary prevention of myocardial infarction” (TASLY PHARMACEUTICAL GROUP CO., LTD, priority 2010, dated 2015).

System: patients after acute myocardial infarction
Assay: TCM symptom score, total and single (chest pain, chest tightness, short breath, fatigue, palpitation, spontaneous perspiration, pale complexion), same clinical trial
Format: in vivo, human
Parameters: total score of TCM symptom, Mean / total score of TCM symptom, Min / total score of TCM symptom, Max / total score of TCM symptom, Md / change of total score of TCM symptom, Mean / change of total score of TCM symptom, Max / change of total score of TCM symptom, Md: scale not given here
Conditions: PP
Text: 3508 patients who were in accordance with the diagnostic standards of AMI for 28 days to 2 years and differentiated as Qi deficiency and blood stagnation syndrome by TCM were studied. 0.5 g Chinese medicine composition prepared by the method of EXAMPLE 1 (Coded as QSYQ) was administrated half an hour after meal, 3 times per day.
They included the overall survival time, angina pectoris score, TCM symptom score and life quality score, where angina pectoris score, TCM symptom score and life quality score were evaluated at randomization, in 1st, 3rd, 6th, 9th, 12th month after treatment and 18th month after follow-up.
The analysis method referred to the angina pectoris score.

CC(=O)Oc1ccccc1C(=O)O [Control group, aspirine]
pale complexion score 3, percent of patients (Baseline): (3.88%) | short breath score 0, % of patients (Baseline): (14.48%) | short breath score 0, number of patients (Baseline): 213 | short breath score 3, % of patients (Baseline): (51.12%) | short breath score 3, number of patients (Baseline): 752 | short breath score 6, % of patients (Baseline): (32.56%) | short breath score 6, number of patients (Baseline): 479 | short breath score 9, % of patients (Baseline): (1.84%) | short breath score 9, number of patients (Baseline): 27 | distribution of total score of TCM symptom: Medium, number of patients (Follow-up): 212 | distribution of total score of TCM symptom: Medium, percentage of patients (Follow-up): (15.23%) | distribution of total score of TCM symptom: Mild, number of patients (Follow-up): 1177 | distribution of total score of TCM symptom: Mild, percentage of patients (Follow-up): (84.55%) | distribution of total score of TCM symptom: Severe, number of patients (Follow-up): 3 | distribution of total score of TCM symptom: Severe, percentage of patients (Follow-up): (0.22%) | fatigue score 0, % of patients (Follow-up): (42.80%) | fatigue score 0, number of patients (Follow-up): 597 | fatigue score 2, % of patients (Follow-up): (52.97%) | fatigue score 2, number of patients (Follow-up): 739 | fatigue score 4, % of patients (Follow-up): (4.01%) | fatigue score 4, number of patients (Follow-up): 56 | fatigue score 6, % of patients (Follow-up): (0.22%) | fatigue score 6, number of patients (Follow-up): 3 | pale complexion score 0, number of patients (Follow-up): 862 | pale complexion score 0, percent of patients (Follow-up): (61.79%) | pale complexion score 1, number of patients (Follow-up): 452 | pale complexion score 1, percent of patients (Follow-up): (32.40%) | pale complexion score 2, number of patients (Follow-up): 75 | pale complexion score 2, percent of patients (Follow-up): (5.38%) | pale complexion score 3, number of patients (Follow-up): 6 | pale complexion score 3, percent of patients (Follow-up): (0.43%) | palpitation score 0, number of patients (Follow-up): 613 | palpitation score 0, percent of patients (Follow-up): (43.94%) | palpitation score 2, number of patients (Follow-up): 683 | palpitation score 2, percent of patients (Follow-up): (48.96%) | palpitation score 4, number of patients (Follow-up): 94 | palpitation score 4, percent of patients (Follow-up): (6.74%) | palpitation score 6, number of patients (Follow-up): 5 | palpitation score 6, percent of patients (Follow-up): (0.36%) | short breath score 0, % of patients (Follow-up): (35.34%) | short breath score 0, number of patients (Follow-up): 493 | short breath score 2, % of patients (Follow-up): (0.07%) | short breath score 2, number of patients (Follow-up): 1 | short breath score 3, % of patients (Follow-up): (54.70%) | short breath score 3, number of patients (Follow-up): 763 | short breath score 6, % of patients (Follow-up): (9.68%) | short breath score 6, number of patients (Follow-up): 135 | short breath score 9, % of patients (Follow-up): (0.22%) | short breath score 9, number of patients (Follow-up): 3 | spontaneous perspiration score 0, number of patients (Follow-up): 750 | spontaneous perspiration score 0, percent of patients (Follow-up): (53.80%) | spontaneous perspiration score 1, number of patients (Follow-up): 578 | spontaneous perspiration score 1, percent of patients (Follow-up): (41.46%) | spontaneous perspiration score 2, number of patients (Follow-up): 62 | spontaneous perspiration score 2, percent of patients (Follow-up): (4.45%) | spontaneous perspiration score 3, number of patients (Follow-up): 4 | spontaneous perspiration score 3, percent of patients (Follow-up): (0.29%) | total score of TCM symptom, Max (Follow-up): 32.00 | total score of TCM symptom, Md (Follow-up): 7.00 | total score of TCM symptom, Mean (Follow-up): 7.73 | total score of TCM symptom, Min (Follow-up): 0.00 | change of fatigue 0, % of patients (Follow-up-baseline): (42.99%) | change of fatigue 0, number of patients (Follow-up-baseline): 598 | change of fatigue 2, % of patients (Follow-up-baseline): (37.60%) | change of fatigue 2, number of patients (Follow-up-baseline): 523 | change of fatigue 4, % of patients (Follow-up-baseline): (11.00%) | change of fatigue 4, number of patients (Follow-up-baseline): 153 | change of fatigue 6, % of patients (Follow-up-baseline): (2.01%) | change of fatigue 6, number of patients (Follow-up-baseline): 28 | change of fatigue −2, % of patients (Follow-up-baseline): (6.18%) | change of fatigue −2, number of patients (Follow-up-baseline): 86 | change of fatigue −4, % of patients (Follow-up-baseline): (0.22%) | change of fatigue −4, number of patients (Follow-up-baseline): 3 | change of pale complexion 0, number of patients (Follow-up-baseline): 932 | change of pale complexion 0, percent of patients (Follow-up-baseline): (67.29%) | change of pale complexion 1, number of patients (Follow-up-baseline): 414 | change of pale complexion 1, percent of patients (Follow-up-baseline): (29.89%) | change of pale complexion −1, number of patients (Follow-up-baseline): 39 | change of pale complexion −1, percent of patients (Follow-up-baseline): (2.82%) | change of palpitation 0, number of patients (Follow-up-baseline): 677 | change of palpitation 0, percent of patients (Follow-up-baseline): (48.71%) | change of palpitation 1, number of patients (Follow-up-baseline): 516 | change of palpitation 1, percent of patients (Follow-up-baseline): (37.12%) | change of palpitation 2, number of patients (Follow-up-baseline): 93 | change of palpitation 2, percent of patients (Follow-up-baseline): (6.69%) | change of palpitation 3, number of patients (Follow-up-baseline): 14 | change of palpitation 3, percent of patients (Follow-up-baseline): (1.01%) | change of palpitation −1, number of patients (Follow-up-baseline): 86 | change of palpitation −1, percent of patients (Follow-up-baseline): (6.19%) | change of palpitation −2, number of patients (Follow-up-baseline): 3 | change of palpitation −2, percent of patients (Follow-up-baseline): (0.22%) | change of palpitation −3, number of patients (Follow-up-baseline): 1 | change of palpitation −3, percent of patients (Follow-up-baseline): (0.07%) | change of short breath 0, % of patients (Follow-up-baseline): (52.12%) | change of short breath 0, number of patients (Follow-up-baseline): 725 | change of short breath 2, % of patients (Follow-up-baseline): (36.45%) | change of short breath 2, number of patients (Follow-up-baseline): 507 | change of short breath 4, % of patients (Follow-up-baseline): (5.46%) | change of short breath 4, number of patients (Follow-up-baseline): 76 | change of short breath 6, % of patients (Follow-up-baseline): (0.72%) | change of short breath 6, number of patients (Follow-up-baseline): 10 | change of short breath −2, % of patients (Follow-up-baseline): (5.10%) | change of short breath −2, number of patients (Follow-up-baseline): 71 | change of short breath −4, % of patients (Follow-up-baseline): (0.00%) | change of short breath −4, number of patients (Follow-up-baseline): 0 | change of short breath −6, % of patients (Follow-up-baseline): (0.14%) | change of short breath −6, number of patients (Follow-up-baseline): 2 | change of spontaneous perspiration 0, number of patients (Follow-up-baseline): 644 | change of spontaneous perspiration 0, percent of patients (Follow-up-baseline): (46.33%) | change of spontaneous perspiration 1, number of patients (Follow-up-baseline): 451 | change of spontaneous perspiration 1, percent of patients (Follow-up-baseline): (32.45%) | change of spontaneous perspiration 2, number of patients (Follow-up-baseline): 138 | change of spontaneous perspiration 2, percent of patients (Follow-up-baseline): (9.93%) | change of spontaneous perspiration 3, number of patients (Follow-up-baseline): 31 | change of spontaneous perspiration 3, percent of patients (Follow-up-baseline): (2.23%) | change of spontaneous perspiration −1, percent of patients (Follow-up-baseline): (8.35%) | change of spontaneous perspiration −2, number of patients (Follow-up-baseline): 8 | change of spontaneous perspiration −2, percent of patients (Follow-up-baseline): (0.58%) | change of spontaneous perspiration −3, number of patients (Follow-up-baseline): 2 | change of spontaneous perspiration −3, percent of patients (Follow-up-baseline): (0.14%) | change of total score of TCM symptom, Max (Follow-up-baseline): 27.00 | change of total score of TCM symptom, Md (Follow-up-baseline): −5.00 | change of total score of TCM symptom, Mean (Follow-up-baseline): −6.16 | change of total score of TCM symptom, Min (Follow-up-baseline): −29.00
